Test results from US20260191845A1, “PYRIDINE-2-THIOL 1-OXIDE DERIVATIVES AND THEIR USE FOR TREATMENT OF MAMMALIAN INFECTIONS CAUSED BY MYCOBACTERIUM OR FUNGI” (priority 2022, published 2026).
Where “and” joins values, the source holds several entries; their conditions need not be identical. Equal values may be shown once.

Columns and labels:
[1] = Pharmacokinetic study in mice; type: in vivo, Balb/C male mice; conditions: 100 mg/kg intragastric, saline solution
Method: The pharmacokinetics of the compound 2 has been studied white Balb/C male mice. 27 animals with average body weight of 20 g were selected for the study. The animals were kept on standard vivarium ration with dry pelleted feed before the experiment. All the test animals had free access to water but were deprived of food for 1 hour before administration of the compound. This regimen was continued for another hour after the administration.
Compound in a dose of 100 mg/kg of body weight was administered as 0.5 mL of saline solution by intragastric intubation.
The animals were euthanized by decapitation for blood and brain sampling. Blood and brain samples (3 animals per time point) were taken at 15, 30, 60, 120, 240, 360 1440 min after administration for pharmacokinetic evaluation. Blood was collected in heparinized tubes and centrifuged at 3500 RPM. Plasma was separated from formed elements and immediately frozen at −20° C. in freezer. This storage continued before transferring of plasma for analysis. Serum from 6 untreated animals was used as control and for equipment calibration with compound. Mice brain was immediately frozen at −120° C.

[2] = test system: Pseudomonas aeruginosa PAO1; test: REMA MIC90, broad spectrum of microorganisms; type: cell-based; conditions: Pseudomonas aeruginosa PAO1, in presence of efflux inhibitor, read-out: MIC to Compound 2
[3] = test system: M. abscessus MDR clinical isolate 2 (from CF patient); test: REMA MIC90, broad spectrum of microorganisms; type: cell-based; conditions: Mycobacteroides abscessus, resistant to amikacin, amoxicillin, imipenem, linezolid and others, read-out: MIC to Compound 2
Method: (§1) To determine the in vitro activity of compounds (MIC90) against Mycobacterium abscessus ATCC 19977, the resazurin reduction microplate assays (REMA) is performed. Briefly, serial 2-fold dilutions of drug are prepared in 96-well microtiter plates (Fluoronunc, Thermo Fisher, Waltham, MA, USA) in 100 μL of Middlebrook 7H9 medium (Difco), supplemented with 10% OADC without addition of Tween 80. Then, M. abscessus log-phase cultures were diluted (OD600=0.02) and added in the 96-well microtiter plate. Growth controls containing no compound and sterile controls without inoculum are also included. Also, a compound known to be active against M. abscessus growth is included as positive control. After 1 day of incubation at 37° C., 10 μL of resazurin (0.025% w/v) is added to each well, and bacterial viability is assessed after a further 24 h of incubation using a Fluoroskan™ Microplate Fluorometer (Thermo Fisher Scientific, Waltham, MA, USA; excitation=544 nm, emission=590 nm). Bacterial viability was calculated as a percentage of resazurin turnover in the absence of compound (MIC90). […]. Results are expressed as the average of at least three independent replicates and presented on the following Table 1.
(§2) By using the same procedure, the compound according to Example B (compound 2) was tested on broad spectrum of microorganisms and the corresponding results are presented in the below Table 2.

[4] = test system: M. abscessus clinical isolate n. 8; test: REMA MIC90, broad spectrum of microorganisms; type: cell-based; conditions: Mycobacteroides abscessus, M. abscessus clinical isolate n. 8, resistant to moxifloxacin, doxycycline, read-out: MIC to Compound 2
Method: as §1, §2

[5] = test system: MRSA Staphylococcus aureus clinical isolate; test: REMA MIC90, broad spectrum of microorganisms; type: cell-based; conditions: read-out: MIC to Compound 2
Method: as §1, §2

[6] = test system: M. avium clinical isolate n. 3; test: REMA MIC90, broad spectrum of microorganisms; type: cell-based; conditions: Mycobacterium avium, M. avium clinical isolate n. 3, resistant to linezolid, read-out: MIC to Compound 2
Method: as §1, §2

[7] = test system: M. avium clinical isolate n. 4; test: REMA MIC90, broad spectrum of microorganisms; type: cell-based; conditions: Mycobacterium avium, M. avium clinical isolate n. 4, resistant to linezolid and Moxifloxacin, read-out: MIC to Compound 2
Method: as §1, §2

[8] = test system: M. abscessus clinical isolate n. 6; test: REMA MIC90, broad spectrum of microorganisms; type: cell-based; conditions: Mycobacteroides abscessus, M. abscessus clinical isolate n. 6, resistant to clarithromycin, moxifloxacin, doxycycline, linezolid, read-out: MIC to Compound 2
Method: as §1, §2

[9] = test system: M. abscessus clinical isolate n. 7; test: REMA MIC90, broad spectrum of microorganisms; type: cell-based; conditions: Mycobacteroides abscessus, M. abscessus clinical isolate n. 7, resistant to clarithromycin, amikacin, moxifloxacin, doxycycline, read-out: MIC to Compound 2
Method: as §1, §2

[10] = test system: M. avium clinical isolate n. 1; test: REMA MIC90, broad spectrum of microorganisms; type: cell-based; conditions: Mycobacterium avium, M. avium clinical isolate n. 1, resistant to linezolid, read-out: MIC to Compound 2
Method: as §1, §2

[11] = test system: M. abscessus clinical isolate n. 10; test: REMA MIC90, broad spectrum of microorganisms; type: cell-based; conditions: Mycobacteroides abscessus, M. abscessus clinical isolate n. 10, resistant to moxifloxacin, doxycycline, read-out: MIC to Compound 2
Method: as §1, §2

[12] = test system: M. avium clinical isolate n. 2; test: REMA MIC90, broad spectrum of microorganisms; type: cell-based; conditions: Mycobacterium avium, M. avium clinical isolate n. 2, resistant to linezolid, read-out: MIC to Compound 2
Method: as §1, §2

[13] = test system: M. abscessus MDR clinical isolate 1; test: REMA MIC90, broad spectrum of microorganisms; type: cell-based; conditions: Mycobacteroides abscessus, M. abscessus MDR clinical isolate 1, resistant to amikacin, clarithromycin, doxycycline, bedaquiline and others, read-out: MIC to Compound 2
Method: as §1, §2

[14] = test system: M. abscessus clinical isolate n. 9; test: REMA MIC90, broad spectrum of microorganisms; type: cell-based; conditions: Mycobacteroides abscessus, M. abscessus clinical isolate n. 9, resistant to clarithromycin, moxifloxacin, doxycycline, read-out: MIC to Compound 2
Method: as §1, §2

[15] = Subacute toxicity, 14 days per oral administration in mice; type: in vivo
Method: Acute and subacute toxicity of compound 2 was experimentally studied for intragastric administration in white mice. […] The compound was solubilized in saline to be administrated to animals.
Evaluation of subacute toxicity of compound 2 observation time after 14 days per oral administration.
Experimental animals: 14 C57BL/6 male white mice, 7 weeks old, weight 20-22 g.
The following experimental procedure was used: • administration route of the compound: per os; • dosage 50 mg/kg once a day for 14 days; • volume introduced into 0.3 ml/20 g (15 ml/kg); • data recorded: behavior, weight changes, rectal temperature, mortality.

M. tuberculosis H37Rv = test: REMA MIC90, broad spectrum of microorganisms; type: cell-based; conditions: Mycobacterium tuberculosis, Wild-type, read-out: MIC to Compound 2
M. bovis BCG Pasteur = test: microbe, parasite or virus in culture; type: cell-based; conditions: Mycobacterium tuberculosis variant bovis BCG, read-out: MIC to Compound 2
[16] = mice, per os, 50 mg/kg once a day for 14 days

Structure (SMILES): CCOC(=O)c1ccc([S-])[n+]([O-])c1.[Na+] [Compound 2, Sodium 5-(ethoxycarbonyl)pyridine-2-thiolate 1-oxide]
- Bioavailability [1]: high bioavailability
- MIC [2]: 1000 µg/mL
- MIC [3]: 500 µg/mL
- MIC [4]: 500 µg/mL
- MIC [5]: 8000 µg/mL
- MIC [6]: 500 µg/mL
- MIC [7]: 500 µg/mL
- MIC [8]: 500 µg/mL
- MIC [9]: 500 µg/mL
- MIC [10]: 500 µg/mL
- MIC [11]: 500 µg/mL
- MIC [12]: 500 µg/mL
- MIC [13]: 500 µg/mL
- MIC [14]: 500 µg/mL
- Weight of mice, Experimental group, 28 Jan. 2021, M ± m ([15]; group mean, after 14 days of 50 mg/kg per os daily): 21.13 ± 0.308 gramm
- Weight of mice, Experimental group, 13 Jan. 2021, M ± m ([15]; group mean, start of 50 mg/kg per os daily treatment): 20.71 ± 0.4 gramm
- Weight of individual mice, Experimental group, 28 Jan. 2021 ([15]; individual mice, after 14 days of 50 mg/kg per os daily, 50 mg/kg): 21.1 gramm and 19.5 gramm and 20.9 gramm and 21.7 gramm and 21.5 gramm (2×) and 22.4 gramm and 20.5 gramm
- Weight of individual mice, Experimental group, 13 Jan. 2021 ([15]; individual mice, start of 50 mg/kg per os daily treatment, 50 mg/kg): 20.1 gramm and 22.1 gramm and 19.2 gramm and 19.7 gramm and 20.9 gramm and 20.5 gramm and 22.8 gramm and 20.4 gramm
- Subacute toxicity: general state and behavior [15, 16]: did not cause changes in the general state and behavior of the mice
- Subacute toxicity: mass of mice, experimental vs control group [15, 16]: No significant differences
- Subacute toxicity: animal death ([15]; mouse, in vivo, 50 mg/kg): there were no cases of animal death
- MIC (M. tuberculosis H37Rv): 25 µg/mL
- MIC (M. bovis BCG Pasteur): 62.5 µg/mL
